{
  "source": "patent US20110136899A1",
  "about": "“COMBINATION OF DRONEDARONE WITH AT LEAST ONE DIURETIC, AND THERAPEUTIC USE THEREOF” (SANOFI-AVENTIS, priority 2008, published 2011)",
  "key": {"[1]": {"test": "prospective, multinational, multicentre, double-blind clinical study versus placebo: prevention of cardiovascular hospitalizations or of mortality", "format": "in vivo, patients", "parameters": "reduction in mortality from any cause: concentration or dose not given beside the values", "experimental": "The patients had to have a history of atrial fibrillation or flutter and/or could be in normal sinus rhythm or in atrial fibrillation or flutter at inclusion.\nThe patient recruitment was carried out by taking into account the following inclusion criteria:\nInclusion Criteria: • 1) One of the following risk factors had to be present: • age equal to or above 70, or even above 75, possibly combined with at least one of the risk factors below: • hypertension (taking antihypertensives of at least two different classes), • diabetes, • history of cerebral stroke (transient ischemic event or completed cerebral stroke) or of systemic embolism, • left atrial diameter greater than or equal to 50 mm measured by echocardiography, • left ventricular ejection fraction less than 40%, measured by two-dimensional echography; • 2) availability of an electrocardiogram carried out during the past 6 months in order to document the presence or the history of atrial fibrillation or flutter; • 3) availability of an electrocardiogram carried out during the past 6 months in order to document the presence or absence of normal sinus rhythm.\nTreatment was initiated using tablets containing either the placebo or an amount of dronedarone hydrochloride corresponding to 400 mg of dronedarone at a rate of one tablet in the morning during or shortly after breakfast and one tablet in the evening during or shortly after dinner.\nThe anticipated duration of the treatment was variable according to the time at which each patient was included in the study, and could range from a minimum of 12 months for the last patient included up to a maximum corresponding to the entire duration of the study (12 months+duration of inclusion), i.e. approximately 30 months for the first patients included.\nThe results obtained in this trial were analysed by the Kaplan Meier method for the figures, and the relative risk (RR) was estimated using Cox's proportional-effect regression model.\nThe relative risk (RR) is the ratio of the rates of occurrence of a hospitalization or of a death among the patients on dronedarone, relative to the patients on placebo.\nThe percentage reduction x of a given event (hospitalization, death, cardiovascular death, etc.) is calculated in the following way: […]"}, "[2]": {"test": "regulation of the blood potassium level (regular blood samples taken throughout the clinical study)", "format": "in vivo, patients", "conditions": "after the 24th month, taking into account the starting value; compared to the placebo; p<0.0001", "description": "The potassium concentration-modulating effect is clearly documented in the study by virtue of the results of analyses of regular blood samples taken throughout the duration of the study in the context of the monitoring of vital parameters.\nThe variations in potassium (in mmol/l) between the first and the last administration of the medicament of the study are included in FIG. 8, in which B signifies basal level, D signifies day and M signifies month."}, "[3]": {"conditions": "versus placebo, x=1−relative risk"}},
  "note": "Structures can show the parent of a compound that is named as a salt.",
  "data": [
    {"smiles": "CCCCc1oc2ccc(NS(C)(=O)=O)cc2c1C(=O)c1ccc(OCCCN(CCCC)CCCC)cc1", "note": "[dronedarone hydrochloride]", "values": [
      {"measurement": "events (cardiovascular hospitalizations and mortality, principal judgment criterion)", "setting": "[1]; 2301 patients in treated group, 400 mg dronedarone twice daily, placebo group 917 events", "value": 734},
      {"measurement": "sudden deaths", "setting": "[1]; 2301 patients in treated group, placebo group 35 sudden deaths", "value": 14},
      {"measurement": "cardiovascular deaths", "setting": "[1]; 2301 patients in treated group, placebo group 94 cardiovascular deaths", "value": 65},
      {"measurement": "deaths (mortality from any cause)", "setting": "[1]; 2301 patients in treated group, placebo group 139 deaths", "value": 116},
      {"measurement": "events (cardiovascular hospitalizations)", "setting": "[1]; 2301 patients in treated group, placebo group 859 events", "value": 675},
      {"measurement": "events (cardiovascular hospitalizations and sudden death)", "setting": "[1]; 2301 patients in treated group, placebo group 873 events", "value": 684},
      {"measurement": "events (cardiovascular hospitalizations and cardiovascular mortality)", "setting": "[1]; 2301 patients in treated group, placebo group 892 events", "value": 701},
      {"measurement": "relative risk (sudden death)", "setting": "[1]; versus placebo, Cox model, p=0.0031", "value": 0.405},
      {"measurement": "relative risk (cardiovascular mortality)", "setting": "[1]; versus placebo, Cox model, p=0.0252", "value": 0.698},
      {"measurement": "relative risk (mortality from any cause)", "setting": "[1]; versus placebo, Cox model, p=0.1758", "value": 0.844},
      {"measurement": "relative risk (cardiovascular hospitalizations and deaths)", "setting": "[1]; versus placebo, Cox model, p=2×10^−8", "value": 0.758},
      {"measurement": "relative risk (cardiovascular hospitalizations)", "setting": "[1]; versus placebo, Cox model, p=9×10^−9", "value": 0.745},
      {"measurement": "relative risk (cardiovascular hospitalizations and cardiovascular deaths)", "setting": "[1]; versus placebo, Cox model, p=45×10^−10", "value": 0.745},
      {"measurement": "relative risk (cardiovascular hospitalizations and sudden deaths)", "setting": "[1]; versus placebo, Cox model, p=48×10^−10", "value": 0.743},
      {"measurement": "reduction in cardiovascular hospitalizations", "setting": "[1]; [3]", "value": 25.5, "unit": "%"},
      {"measurement": "reduction in cardiovascular hospitalizations and cardiovascular deaths", "setting": "[1]; [3]", "value": 25.5, "unit": "%"},
      {"measurement": "reduction in cardiovascular hospitalizations and deaths", "setting": "[1]; [3]", "value": 24.2, "unit": "%"},
      {"measurement": "reduction in cardiovascular hospitalizations and sudden deaths", "setting": "[1]; [3]", "value": 25.5, "unit": "%"},
      {"measurement": "reduction in cardiovascular mortality", "setting": "[1]; [3]", "value": 30.2, "unit": "%"},
      {"measurement": "reduction in mortality from any cause", "setting": "[1]; [3]", "value": 15.6, "unit": "%"},
      {"measurement": "reduction in sudden death", "setting": "[1]; [3]", "value": 59.5, "unit": "%"}
    ]},
    {"smiles": "CCCCc1oc2ccc(NS(C)(=O)=O)cc2c1C(=O)c1ccc(OCCCN(CCCC)CCCC)cc1", "note": "[dronedarone, 2-n-Butyl-3-[4-(3-di-n-butylaminopropoxy)benzoyl]-5-methylsulphonamidobenzofuran]", "values": [
      {"measurement": "reduction in the risk of sudden death", "setting": "[1]; hypertensive patients", "value": "approximately 62%"},
      {"measurement": "reduction in the risk of sudden death", "setting": "[1]; patients not taking diuretics, compared with the placebo", "value": "approximately 34%"},
      {"measurement": "reduction in the risk of sudden death", "setting": "[1]; patients on diuretics, compared with the placebo", "value": "approximately 70.4%"},
      {"measurement": "reduction in the risk of sudden death", "setting": "[1]; patients who were not hypertensive", "value": "approximately 45.5%"},
      {"measurement": "change in blood potassium level (analysis of covariance)", "setting": "[2]", "value": "significant different in favour of dronedarone"}
    ]}
  ]
}
